Measurements taken from patent US4980377A, “1-(aminophenyl)-2-aminopropanone derivatives” (Laboratoire L. Lafon, priority 1984, dated 1990).
“Also recorded” adds a separate entry of the source. Counter-ions that a name gives are not always drawn.

Assays:
mice [1] = test: Interaction with oxotremorine; assay type: in vivo, mouse; settings: i.p.
Procedure: CRL 41 153 is administered to groups of 6 mice 0.5 hour before the intraperitoneal injection of 0.5 mg/kg of oxotremorine.

rats [2] = test: Interaction with apomorphine in rats; assay type: in vivo, rat; settings: i.p.
Procedure: CRL 41 153 is administered to groups of 6 rats 0.5 hour before the subcutaneous injection of 0.5 mg/kg of apomorphine.

[3] = system: gravid White New Zealand female rabbits; test: Teratogenicity in gravid White New Zealand rabbits; assay type: in vivo, rabbit; settings: day 5 to day 18 of gestation; for Affected foetuses, %: normal limit 1.5%
Procedure: The protocol used comprised administering to gravid White New Zealand female rabbits (weighing each about 2900-3000 grams before gestation) a daily dose of 0 (batch of control animals), 5,10 or 50 mg/kg of each product to be tested by gastrogavage from day 5 to day 18 of gestation, then carrying out a cesarean operation on day 29 of gestation in order to enumerate:
(i) the total number of foestuses, and
(ii) the total number of foestuses presenting at least one malformation.
To appreciate the results of such a protocol it must be noted that natural malformations may occur. Statistically, the percentage of foetuses presenting at least one malformation in any control batch of gravid White New Zealand female rabbits is lower than or equal to 1.5% with respect to the total number of foetuses.
To be precise in this protocol a malformation comprises at least one of the following cases: articular limb blocade, anorous foetus, deviated tail, shorter tail, skull deformation, exemcephalia.

CNS = test: Neuropsychopharmacological profile as a whole; assay type: in vivo, mice and rats
Procedure: (§1) In the neuropsychopharmacological study which follows, a solution of CRL 41 153 in distilled water (pH 1.5) was administered intraperitoneally in a volume of 20 ml/kg to male mice and 5 ml/kg to male rats.

mice [4] = test: Behavioral despair; assay type: in vivo, mouse; settings: forcibly immersed mice, i.p.
Excerpt: Half an hour after they have received CRL 41 153, groups of 6 mice are placed in a beaker filled with water to a height of 6 cm. The total period of immobility between the 2nd and 6th minutes following immersion is noted.

rats [5] = test: Overall behavior and reactivities in rats; assay type: in vivo, rat; settings: dose not stated
Procedure: as §1
(§2) Groups of three animals are observed before and then 0.25 hour, 0.50 hour, 1 hour, 2 hours, 3 hours and 24 hours after the administration of CRL 41 153.

mice [6] = test: Four plate test, traction and electric shock; assay type: in vivo, mouse; settings: i.p.
Procedure: The test is performed on groups of 10 mice 30 minutes after the administration of CRL 41 153.

mice [7] = test: Overall behavior and reactivities in mice; assay type: in vivo, mouse; settings: dose not stated
Procedure: as §1, §2

mice [8] = test: Spontaneous motility; assay type: in vivo, mouse; settings: i.p.
Procedure: 0.5 hour after they have received CRL 41 153, the mice (6 per dose, 12 control animals) are placed in an actimeter, where their motility is recorded for 30 minutes.

[9] = pH of solutions in distilled water; assay type: physicochemical
Procedure: The neuropsychopharmacological study was undertaken according to the procedures described above for CRL 41 153, CRL 41 213 being adminstered intraperitoneally, in solution in distilled water, in a volume of 20 ml/kg to male mice and a volume of 5 ml/kg to male rats, and the pH of the injected solution varying with the concentration of CRL 41 213 according to the data given in Table II below.

mice [10] = test: Motility reduced by habituation to the enclosure; assay type: in vivo, mouse; settings: i.p.
Procedure: After they have stayed In the actimeters for 18 hours, (he mice (6 per dose, 12 control animals) receive CRL 41 153. They are immediately returned to their respective enclosures and, half an hour later, their motility is recorded for 30 minutes.

rats [11] = test: Interaction with amphetamine; assay type: in vivo, rat; settings: i.p.
Procedure: Amphetamine (2 mg/kg) is injected intraperitoneally into groups of 6 rats 30 minutes after the administration of CRL 41 153. […] 4 mg/kg and 16 mg/kg, CRL 41 153 potentiates the intensity and duration of the stereotypies induced by amphetamine.

mice [12] = test: Interaction with apomorphine in mice; assay type: in vivo, mouse; settings: i.p.
Procedure: Groups of 6 mice receive CRL 41 153 0.5 hour before the subcutaneous injection of 1 or 16 mg/kg of apomorphine.

mice [13] = test: Interaction with barbital; assay type: in vivo, mouse; settings: i.p., barbital 220 mg/kg
Procedure: Half an hour after the administration of CRL 41 153, groups of 10 mice receive an intraperitoneal injection of barbital (220 mg/kg).

mice [14] = test: Interaction with reserpine; assay type: in vivo, mouse; settings: i.p.
Procedure: Four hours after the intraperitoneal injection of 2.5 mg/kg of reserpine, groups of 6 mice receive CRL 41 153.

mice [15] = test: Motility reduced by hypoxic aggression; assay type: in vivo, mouse; settings: i.p.
Procedure: Half an hour after they have received CRL 41 153, the mice (10 per dose, 20 control animals) are subjected to acute hypobaric anoxia [pressure reduction of 600 mm Hg (i.e. about 8×10^4 Pa) in 90 seconds; release of vacuum in 45 seconds] and are then placed in an actimeter, where their motility is recorded for 10 minutes.

immunity = test: Immunological study (overall); settings: in vivo
[16] = Particular toxicity in grouped mice; settings: mouse, in vivo, ip
Procedure: The number of dead animals is noted after 1 hour, 2 hours, 3 hours, 4 hours and 24 hours.

SMILES	Effect on hypothermic action of oxotremorine (mice [1])	Effect on stereotypies induced by apomorphine (rats [2])	Antidepressant effects (overall) (CNS; conclusion of the tests)	Stimulant effects (overall) (CNS; conclusion of the tests)	α-adrenergic stimulant effects (overall) (CNS; conclusion of the tests)	Period of immobility due to despair (mice [4])	Overall behavior: observed effects (summary) (rats [5])	Stereotype movements (summary) (rats [5])	Effect on convulsant effects of electric shock (mice [6])	Overall behavior: observed effects (summary) (mice [7])	Stereotype movements (summary) (mice [7])	Spontaneous motor activity (mice [8])	pH ([9]; 6 g/liter in distilled water)	pH ([9]; 50 g/liter in distilled water)	Motor activity of mice accustomed to their enclosure (mice [10])	Effect on stereotypies induced by amphetamine (rats [11])	Effect on hypothermia induced by apomorphine (mice [12])	Duration of the sleep induced by barbital (mice [13])	Effect on hypothermia induced by reserpine (mice [14])	Effect on ptosis induced by reserpine (mice [14])	other results
CNC(C)C(=O)c1ccc(N)cc1 (stereo not shown) [CRL 41 218, 1-4-aminophenyl)-2-methylaminopropanone dihydrochloride]	antagonism of the hypothermia	potentiation of the stereotypies	antidepressant effects	stimulant effects	α-adrenergic stimulant effects	a reduction in the period of immobility	excitation in mice and rats	presence of stereotype movements	antagonism, at strong doses, of the convulsant effects of electric shock	excitation in mice and rats	presence of stereotype movements	increase in the motor activity	5.0	4.0	resumption in the motor activity of mice accustomed to their enclosure	potentiation of the stereotypies	antagonism of the hypothermia	distinct antagonism of the sleep induced by barbital	antagonism of the hypothermia	antagonism of the ptosis induced by reserpine	Affected foetuses, number ([3]; 50 mg/kg daily): 1; Total foetuses (live) ([3]; 50 mg/kg daily): 79; Affected foetuses, % ([3]; 50 mg/kg daily): 1.26%; Anticonvulsant effects (overall) (CNS; conclusion of the tests): anticonvulsant effects; Peripheral α-adrenergic signs (mydriasis, salivation, lacrimation, exophthalmos) (CNS; species and dose not stated, dihydrochloride): mydriasis; also recorded: salivation; pH ([9]; 13 g/liter in distilled water): 4.5; pH ([9]; ≤3 g/liter in distilled water): 5.5; Motor recovery of mice after hypobaric hypoxia (mice [15]): improvement in the motor recovery
CC(C(=O)c1ccc(N)cc1)N1CCCCC1 (stereo not shown) [CRL 41 241]	antagonism of the hypothermia	potentiation of the stereotypies	antidepressant-type effect	large stimulant component	an α-adrenergic stimulation component	a reduction in the Period of immobility	excitation with hyperactivity in mice and rats; also recorded: moderate mydriasis in mice and rats	the presence of stereotype movements in mice and rats	total antagonism of the convulsant effect of electric shock	excitation with hyperactivity in mice and rats; also recorded: moderate mydriasis in mice and rats	the presence of stereotype movements in mice and rats	an increase in the spontaneous motor activity of mice	2.0	1.0	resumption in the motor activity of mice accustomed to their enclosure	potentiation of the stereotypies	antagonism of the hypothermia	a reduction in the duration of the sleep induced by barbital	antagonism of the hypothermia	a decrease in the ptosis induced by reserpine	Effect on trembling induced by oxotremorine (mice [1]): a very distinct reduction in the intensity of the trembling due to oxotremorine; Affected foetuses, number ([3]; 10 mg/kg daily): 0; Total foetuses (live) ([3]; 10 mg/kg daily): 88; Affected foetuses, % ([3]; 10 mg/kg daily): 0%; Number of punished passes in the four plate test (mice [6]): a moderate increase in the number of punished passes in the 4 plate test on mice (at high doses); pH ([9]; 0.3 g/liter in distilled water): 5.0; pH ([9]; 0.5 g/liter in distilled water): 4.5; pH ([9]; 1 g/liter in distilled water): 3.5; pH ([9]; 2 g/liter in distilled water): 3.0; pH ([9]; 3 g/liter in distilled water): 2.5; pH ([9]; 26 g/liter in distilled water): 1.5; pH ([9]; ≤0.05 g/liter in distilled water): 5.5; Motor recovery of mice after hypobaric hypoxia (mice [15]): improvement in the motor recovery
CC(C(=O)c1ccc(N)cc1)N1CCSCC1 (stereo not shown) [CRL 41 248]	–	–	–	–	–	–	–	–	–	–	–	–	–	1.5	–	–	–	–	–	–	Affected foetuses, number ([3]; 10 mg/kg daily): 1; Total foetuses (live) ([3]; 10 mg/kg daily): 93; Affected foetuses, % ([3]; 10 mg/kg daily): 1.07%; pH ([9]; 0.05 g/liter in distilled water): 5.0; pH ([9]; 0.1 g/liter in distilled water): 4.5; pH ([9]; 0.2 g/liter in distilled water): 4.0; pH ([9]; 0.4 g/liter in distilled water): 3.5; pH ([9]; 1.2-0.8 g/liter in distilled water): 3.0; pH ([9]; 3.2 g/liter in distilled water): 2.5; pH ([9]; 6.4 g/liter in distilled water): 2.0; pH ([9]; ≤0.025 g/liter in distilled water): 5.5; Immunological effect (overall) (immunity): immunostimulant or immunomodulating effects
COC(=O)C(c1ccccc1)C1CCCCN1 (stereo not shown) [methylphenidate, reference compound]	–	–	–	–	–	–	–	–	–	–	–	–	–	–	–	–	–	–	–	–	selectivity ratio [16]: ~6
CN1Cc2c(N)cccc2C(c2ccccc2)C1 (stereo not shown) [nomifensin, reference compound]	–	–	–	–	–	–	–	–	–	–	–	–	–	–	–	–	–	–	–	–	selectivity ratio [16]: ~4
